Assay results reported in ChEMBL document CHEMBL4699602, “Stapled and Xenopus Glucagon-Like Peptide 1 (GLP-1)-Based Dual GLP-1/Gastrin Receptor Agonists with Improved Metabolic Benefits in Rodent Models of Obesity and Diabetes” (J Med Chem, 2020).
pEC50: −log10 of the molar value. Calls of active or inactive are those of the source. The calls are words filed in the database; no cut-off is given here. *1 amine or outer side, *2 acyl side, *3 side chain or, on linkers, in order; H or OH if unused. Where a SMILES comes first, the peptide text is derived from it. Bridges are numbered along the chain shown (N, C = ends). [ ]: non-standard residue; d: D form. X5 = O=C(O)CCCCCCCCCCCCCCCCC(=O)NC(CCC(=O)NCCOCCOCC(=O)NCCOCCOCC(=O)NCCCCCCNC(=O)C(CCCCNC(=O)CCN1C(=O)CC([*:2])C1=O)NC(=O)CCN1C(=O)CC([*:1])C1=O)C(=O)O; Aib = CC(C)(N)C(=O)O

Legend:
[1] = molecular target: T1, Glucagon-like peptide 1 receptor (Homo sapiens, UniProt P43220); assay: Agonist activity at human GLP-1R expressed in HEK293 cells assessed as stimulation of cAMP accumulation incubated for 20 mins in presence of 0% HSA; type: functional, cell-based
[2] = molecular target: T1, Glucagon-like peptide 1 receptor; assay: Agonist activity at human GLP-1R expressed in HEK293 cells assessed as stimulation of cAMP accumulation incubated for 20 mins in presence of 4.4% HSA; type: functional, cell-based
[3] = molecular target: T1, Glucagon-like peptide 1 receptor; assay: Ratio of EC50 for agonist activity at human GLP-1R expressed in HEK293 cells in presence of 4.4% HSA to EC50 for agonist activity at human GLP-1R expressed in HEK293 cells in presence of 0% HSA; type: cell-based
serum albumin = serum albumin (Homo sapiens, UniProt P02768); assay: Binding affinity to human serum albumin in PBS pH 7.4 at 100 ug/mL incubated for 2 hrs by LC-MS/MS analysis relative to control; type: ADME; conditions: at 100 µg/mL, read-out: PB (converted)
Mus musculus [4] = assay: Hypoglycemic activity in non-fasted db/db mouse assessed as decrease in blood glucose concentration at 25 nmol/kg, sc by OGTT method; type: functional, organism-based
Mus musculus [5] = assay: Reduction in body weight in C57BL/6 mouse model of diet induced obesity at 25 nmol/kg, sc BID for 1 week relative to control; type: functional; set-up: scale not given: the % may be the effect or the level left; conditions: time 1 weeks
Mus musculus [6] = assay: Reduction in food intake in C57BL/6 mouse model of diet induced obesity at 25 nmol/kg, sc BID for 1 week relative to control; type: functional, organism-based; conditions: time 1.0 weeks
Mus musculus [7] = assay: Reduction in fasted hyperglycemia in C57BL/6 mouse model of diet induced obesity at 25 nmol/kg, sc BID for 1 week relative to control; type: functional, organism-based; conditions: time 1.0 weeks
Mus musculus [8] = assay: Hypoglycemic activity in non-fasted db/db mouse assessed as duration of time during which decrease in blood glucose concentration is observed at 25 nmol/kg, sc by OGTT method; type: functional
Mus musculus [9] = assay: Reduction in body weight in C57BL/6 mouse model of diet induced obesity at 25 nmol/kg, sc dosed every 2 days for 1 week relative to control; type: functional; set-up: scale not given: the % may be the effect or the level left; conditions: time 1 weeks
Mus musculus [10] = assay: Reduction in fasted hyperglycemia in C57BL/6 mouse model of diet induced obesity at 25 nmol/kg, sc dosed every 2 days for 1 week relative to control; type: functional, organism-based; conditions: time 1.0 weeks
Mus musculus [11] = assay: Reduction in food intake in C57BL/6 mouse model of diet induced obesity at 25 nmol/kg, sc dosed every 2 days for 1 week relative to control; type: functional, organism-based; conditions: time 1.0 weeks

Chain of serum albumin (P02768 whole entry): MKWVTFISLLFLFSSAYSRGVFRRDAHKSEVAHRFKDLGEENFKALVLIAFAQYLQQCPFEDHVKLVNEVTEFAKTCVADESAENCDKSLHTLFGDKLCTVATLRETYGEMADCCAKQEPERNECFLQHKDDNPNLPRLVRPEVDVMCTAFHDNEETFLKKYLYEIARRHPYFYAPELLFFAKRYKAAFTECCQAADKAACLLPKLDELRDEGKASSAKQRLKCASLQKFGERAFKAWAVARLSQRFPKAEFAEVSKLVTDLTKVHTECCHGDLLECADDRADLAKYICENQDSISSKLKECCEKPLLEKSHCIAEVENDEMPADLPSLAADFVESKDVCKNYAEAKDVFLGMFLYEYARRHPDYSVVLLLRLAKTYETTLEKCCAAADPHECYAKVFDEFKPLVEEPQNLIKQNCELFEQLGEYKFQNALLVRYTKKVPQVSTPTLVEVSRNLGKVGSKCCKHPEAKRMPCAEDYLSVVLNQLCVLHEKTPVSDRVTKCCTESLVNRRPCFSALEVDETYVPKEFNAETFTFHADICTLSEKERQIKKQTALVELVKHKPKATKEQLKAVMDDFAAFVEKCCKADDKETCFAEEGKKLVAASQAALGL
T1 sequence (P43220 whole entry): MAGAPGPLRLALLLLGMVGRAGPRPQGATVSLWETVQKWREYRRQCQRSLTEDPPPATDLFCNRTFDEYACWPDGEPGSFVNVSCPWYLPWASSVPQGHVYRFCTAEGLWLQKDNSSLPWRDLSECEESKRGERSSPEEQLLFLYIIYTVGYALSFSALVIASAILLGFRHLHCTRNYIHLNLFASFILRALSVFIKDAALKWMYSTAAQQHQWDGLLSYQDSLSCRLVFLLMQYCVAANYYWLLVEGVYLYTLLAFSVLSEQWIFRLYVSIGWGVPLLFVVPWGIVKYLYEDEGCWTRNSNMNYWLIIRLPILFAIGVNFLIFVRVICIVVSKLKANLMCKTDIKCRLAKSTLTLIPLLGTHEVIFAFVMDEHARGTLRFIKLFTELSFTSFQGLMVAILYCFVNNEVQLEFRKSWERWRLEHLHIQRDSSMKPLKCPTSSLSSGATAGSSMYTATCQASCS

Compound	pEC50 [1]	pEC50 [2]	Ratio EC50 [3]	fraction unbound at 2 h, 100 ug/mL (serum albumin)	Activity (Mus musculus [4])	Activity (Mus musculus [5])	Activity (Mus musculus [6])	Activity (Mus musculus [7])	Time (Mus musculus [8])	Activity (Mus musculus [9])	Activity (Mus musculus [10])	Activity (Mus musculus [11])
CCCCCCCCCCCCCCCC(=O)NCCCCCCNC(=O)C1CCCCNC(=O)CCN2C(=O)CC(SC[C@H](NC(=O)[C@H](Cc3ccc(O)cc3)NC(=O)[C@H](CCC(=O)O)NC(=O)[C@@H](NC(=O)[C@@H](NC(=O)[C@H](CC(=O)O)NC(=O)[C@H](CC(N)=O)NC(=O)[C@@H](NC(=O)[C@H](Cc3ccc(O)cc3)NC(=O)[C@@H](NC(=O)CNC(=O)[C@H](CCC(=O)O)NC(=O)C(C)(C)NC(=O)[C@@H](N)Cc3c[nH]cn3)[C@@H](C)O)[C@@H](C)O)C(C)C)[C@@H](C)O)C(=O)N[C@@H](CCC(=O)O)C(=O)N[C@@H](CCC(=O)O)C(=O)N[C@@H](CCC(=O)O)C(=O)N[C@@H](C)C(=O)N[C@@H](C)C(=O)N[C@@H](CCCCN)C(=O)N[C@H](C(=O)N[C@@H](Cc3ccccc3)C(=O)N[C@H](C(=O)N[C@@H](CCC(=O)O)C(=O)N[C@@H](Cc3c[nH]c4ccccc34)C(=O)N[C@@H](CC(C)C)C(=O)N[C@H](C(=O)N[C@@H](CCCCN)C(=O)NCC(=O)N[C@@H](CCCCN)C(=O)N3CCC[C@H]3C(=O)N[C@@H](CO)C(=O)N[C@@H](CO)C(=O)NCC(=O)N[C@@H](C)C(=O)N3CCC[C@H]3C(=O)N3CCC[C@H]3C(=O)N3CCC[C@H]3C(=O)N[C@@H](CO)C(N)=O)[C@@H](C)CC)[C@@H](C)CC)CSC3CC(=O)N(CCC(=O)N1)C3=O)C2=O (some centres not stated) (HELM PEPTIDE1{H.[Aib].E.G.T.Y.T.N.D.V.T.E.Y.C.E.E.E.A.A.K.C.F.I.E.W.L.I.K.G.K.P.S.S.G.A.P.P.P.S.[am]}|CHEM1{[CCCCCCCCCCCCCCCC(=O)NCCCCCCNC(=O)C(CCCCNC(=O)CCN1C(=O)CC([*:1])C1=O)NC(=O)CCN1C(=O)CC([*:2])C1=O]}$PEPTIDE1,CHEM1,14:R3-1:R1|PEPTIDE1,CHEM1,21:R3-1:R2$$$V2.0)	10.39	9.04	22.2	0.162	Active	14.4%	Active	Active				
CC[C@H](C)[C@H](NC(=O)[C@H](CC(C)C)NC(=O)[C@H](Cc1c[nH]c2ccccc12)NC(=O)[C@H](CCC(=O)O)NC(=O)[C@@H](NC(=O)[C@H](Cc1ccccc1)NC(=O)[C@@H]1CSC2CC(=O)N(CCC(=O)NC(C(=O)NCCCCCCNC(=O)COCCOCCNC(=O)COCCOCCNC(=O)CCC(NC(=O)CCCCCCCCCCCCCCCCC(=O)O)C(=O)O)CCCCNC(=O)CCN3C(=O)CC(SC[C@H](NC(=O)[C@H](Cc4ccc(O)cc4)NC(=O)[C@H](CCC(=O)O)NC(=O)[C@@H](NC(=O)[C@@H](NC(=O)[C@H](CC(=O)O)NC(=O)[C@H](CC(N)=O)NC(=O)[C@@H](NC(=O)[C@H](Cc4ccc(O)cc4)NC(=O)[C@@H](NC(=O)CNC(=O)[C@H](CCC(=O)O)NC(=O)C(C)(C)NC(=O)[C@@H](N)Cc4c[nH]cn4)[C@@H](C)O)[C@@H](C)O)C(C)C)[C@@H](C)O)C(=O)N[C@@H](CCC(=O)O)C(=O)N[C@@H](CCC(=O)O)C(=O)N[C@@H](CCC(=O)O)C(=O)N[C@@H](C)C(=O)N[C@@H](C)C(=O)N[C@@H](CCCCN)C(=O)N1)C3=O)C2=O)[C@@H](C)CC)C(=O)N[C@@H](CCCCN)C(=O)NCC(=O)N[C@@H](CCCCN)C(=O)N1CCC[C@H]1C(=O)N[C@@H](CO)C(=O)N[C@@H](CO)C(=O)NCC(=O)N[C@@H](C)C(=O)N1CCC[C@H]1C(=O)N1CCC[C@H]1C(=O)N1CCC[C@H]1C(=O)N[C@@H](CO)C(N)=O (some centres not stated) (HELM PEPTIDE1{H.[Aib].E.G.T.Y.T.N.D.V.T.E.Y.C.E.E.E.A.A.K.C.F.I.E.W.L.I.K.G.K.P.S.S.G.A.P.P.P.S.[am]}|CHEM1{[O=C(O)CCCCCCCCCCCCCCCCC(=O)NC(CCC(=O)NCCOCCOCC(=O)NCCOCCOCC(=O)NCCCCCCNC(=O)C(CCCCNC(=O)CCN1C(=O)CC([*:1])C1=O)NC(=O)CCN1C(=O)CC([*:2])C1=O)C(=O)O]}$PEPTIDE1,CHEM1,14:R3-1:R1|PEPTIDE1,CHEM1,21:R3-1:R2$$$V2.0)	10.60	8.57	108	0.047	Active				24 h	13.8%	Active	
CC[C@H](C)[C@H](NC(=O)[C@H](CC(C)C)NC(=O)[C@H](Cc1c[nH]c2ccccc12)NC(=O)[C@H](CCC(=O)O)NC(=O)[C@@H](NC(=O)[C@H](Cc1ccccc1)NC(=O)[C@@H]1CSC2CC(=O)N(CCC(=O)NC(C(=O)NCCCCCCNC(=O)COCCOCCNC(=O)CCC(NC(=O)CCCCCCCCCCCCCCCCC(=O)O)C(=O)O)CCCCNC(=O)CCN3C(=O)CC(SC[C@H](NC(=O)[C@H](Cc4ccc(O)cc4)NC(=O)[C@H](CCC(=O)O)NC(=O)[C@@H](NC(=O)[C@@H](NC(=O)[C@H](CC(=O)O)NC(=O)[C@H](CC(N)=O)NC(=O)[C@@H](NC(=O)[C@H](Cc4ccc(O)cc4)NC(=O)[C@@H](NC(=O)CNC(=O)[C@H](CCC(=O)O)NC(=O)C(C)(C)NC(=O)[C@@H](N)Cc4c[nH]cn4)[C@@H](C)O)[C@@H](C)O)C(C)C)[C@@H](C)O)C(=O)N[C@@H](CCC(=O)O)C(=O)N[C@@H](CCC(=O)O)C(=O)N[C@@H](CCC(=O)O)C(=O)N[C@@H](C)C(=O)N[C@@H](C)C(=O)N[C@@H](CCCCN)C(=O)N1)C3=O)C2=O)[C@@H](C)CC)C(=O)N[C@@H](CCCCN)C(=O)NCC(=O)N[C@@H](CCCCN)C(N)=O (some centres not stated) (HELM PEPTIDE1{H.[Aib].E.G.T.Y.T.N.D.V.T.E.Y.C.E.E.E.A.A.K.C.F.I.E.W.L.I.K.G.K.[am]}|CHEM1{[O=C(O)CCCCCCCCCCCCCCCCC(=O)NC(CCC(=O)NCCOCCOCC(=O)NCCCCCCNC(=O)C(CCCCNC(=O)CCN1C(=O)CC([*:1])C1=O)NC(=O)CCN1C(=O)CC([*:2])C1=O)C(=O)O]}$PEPTIDE1,CHEM1,14:R3-1:R1|PEPTIDE1,CHEM1,21:R3-1:R2$$$V2.0)	10.23	8.55	47.5	0.074	Active				24 h	9.8%	Active	Active
CC[C@H](C)[C@@H]1NC(=O)[C@H](CC(C)C)NC(=O)[C@H](Cc2c[nH]c3ccccc23)NC(=O)[C@H](CCC(=O)O)NC(=O)[C@H]([C@@H](C)CC)NC(=O)[C@H](Cc2ccccc2)NC(=O)[C@@H](NC(=O)[C@H](CCCCN)NC(=O)[C@H](C)NC(=O)[C@H](C)NC(=O)[C@H](CCC(=O)O)NC(=O)[C@H](CCC(=O)O)NC(=O)[C@H](CCC(=O)O)NC(=O)[C@H](CC(C)C)NC(=O)[C@H](Cc2ccc(O)cc2)NC(=O)[C@H](CCC(=O)O)NC(=O)[C@@H](NC(=O)[C@@H](NC(=O)[C@H](CC(=O)O)NC(=O)[C@H](CC(N)=O)NC(=O)[C@@H](NC(=O)[C@H](Cc2ccc(O)cc2)NC(=O)[C@@H](NC(=O)CNC(=O)[C@H](CCC(=O)O)NC(=O)C(C)(C)NC(=O)[C@@H](N)Cc2c[nH]cn2)[C@@H](C)O)[C@@H](C)O)C(C)C)[C@@H](C)O)CSC2CC(=O)N(CCC(=O)NC(C(=O)NCCCCCCNC(=O)COCCOCCNC(=O)CCC(NC(=O)CCCCCCCCCCCCCCCCC(=O)O)C(=O)O)CCCCNC(=O)CCN3C(=O)CC(SC[C@@H](C(=O)NCC(=O)N[C@@H](CCCCN)C(N)=O)NC1=O)C3=O)C2=O (some centres not stated) (HELM PEPTIDE1{H.[Aib].E.G.T.Y.T.N.D.V.T.E.Y.L.E.E.E.A.A.K.C.F.I.E.W.L.I.C.G.K.[am]}|CHEM1{[O=C(O)CCCCCCCCCCCCCCCCC(=O)NC(CCC(=O)NCCOCCOCC(=O)NCCCCCCNC(=O)C(CCCCNC(=O)CCN1C(=O)CC([*:2])C1=O)NC(=O)CCN1C(=O)CC([*:1])C1=O)C(=O)O]}$PEPTIDE1,CHEM1,21:R3-1:R1|PEPTIDE1,CHEM1,28:R3-1:R2$$$V2.0)	10.16	8.42	55.1	0.084	Active				24 h	13.4%	Active	Active
H-H[Aib]EGTYTNDVTEYLEEEAAKCFIEWLICGKPSSGAPPSKKKKKK-NH2 (linker 21-28 via X5)	10.47	8.57	79.4	0.033	Active				24 h	10.6%	Active	
